Literature values in patent US20050065088A1, “Pharmaceutical compositions and methods comprising combinations of 2-alkylidene-19-nor-vitamin D derivatives and parathyroid hormone” (Pfizer Inc., priority 2003, published 2005).

How the values were obtained:
HL-60 cells = details: result in words
[1] = system: intestinal calcium transport; details: chronic dosing 7 days, 130 or 260 pmol dose (1,25-(OH)2D3 only 260 pmol/day)
[2] = system: serum calcium (bone calcium mobilization); details: for selectivity bone calcium mobilization versus intestinal calcium transport, in words / bone calcium mobilization, result in words: chronic dosing 7 days; for bone calcium mobilization, result in words: 130 and 260 pmol/day

Row | Structure (SMILES) | inducing differentiation of HL-60 cells to the monocyte (HL-60 cells) | intestinal calcium transport, result in words [1] | activity on bone calcium mobilization (serum calcium) relative to the native hormone ([2]; 130 pmol/day, 7 days, 'at least 10 and possible 100-1,000 times') | selectivity bone calcium mobilization versus intestinal calcium transport, in words [2] | bone calcium mobilization, result in words [2] | bone calcium mobilization activity relative to 1,25-(OH)2D3 ([2]; chronic dosing, 7 days, 'likely to be')
1 | C=C1[C@H](O)CC(=C/C=C2\CCC[C@]3(C)[C@@H]([C@@H](C)CCCC(C)(C)O)CC[C@@H]23)C[C@H]1O [2-Methylene-19-Nor-20S-1,25-(OH)2D3, (20S)-1α,25-dihydroxy-2-methylene-19-nor-vitamin D3] | extremely potent | no significant change | at least 10 times | selective for the mobilization of calcium from bone | most potent compound tested | –
2 | C=C1/C(=C\C=C2/CCC[C@]3(C)[C@@H]([C@H](C)CCCC(C)(C)O)CC[C@@H]23)C[C@@H](O)C[C@@H]1O [1,25-(OH)2D3, 1,25-dihydroxyvitamin D3, reference compound] | – | expected elevation | – | – | – | –
3 | C=C1[C@H](O)CC(=C/C=C2\CCC[C@]3(C)[C@@H]([C@H](C)CCCC(C)(C)O)CC[C@@H]23)C[C@H]1O [2-Methylene-19-Nor-1,25-(OH)2D3, 1α,25-dihydroxy-2-methylene-19-nor-vitamin D3] | activity similar to 1,25-(OH)2D3 | no intestinal calcium transport activity | – | selective for the mobilization of calcium from bone | extremely strong bone calcium mobilization | 10-100 times
